US8946223B2, “Substituted hydroxamic acids and uses thereof” (Millennium Pharmaceuticals, Inc., priority 2010, dated 2015)

Target: T1, purified human HDAC6 (Homo sapiens, UniProt Q9UBN7)
T1 construct: purchased BPS Bioscience 5006
T1 sequence (Q9UBN7 1-1215): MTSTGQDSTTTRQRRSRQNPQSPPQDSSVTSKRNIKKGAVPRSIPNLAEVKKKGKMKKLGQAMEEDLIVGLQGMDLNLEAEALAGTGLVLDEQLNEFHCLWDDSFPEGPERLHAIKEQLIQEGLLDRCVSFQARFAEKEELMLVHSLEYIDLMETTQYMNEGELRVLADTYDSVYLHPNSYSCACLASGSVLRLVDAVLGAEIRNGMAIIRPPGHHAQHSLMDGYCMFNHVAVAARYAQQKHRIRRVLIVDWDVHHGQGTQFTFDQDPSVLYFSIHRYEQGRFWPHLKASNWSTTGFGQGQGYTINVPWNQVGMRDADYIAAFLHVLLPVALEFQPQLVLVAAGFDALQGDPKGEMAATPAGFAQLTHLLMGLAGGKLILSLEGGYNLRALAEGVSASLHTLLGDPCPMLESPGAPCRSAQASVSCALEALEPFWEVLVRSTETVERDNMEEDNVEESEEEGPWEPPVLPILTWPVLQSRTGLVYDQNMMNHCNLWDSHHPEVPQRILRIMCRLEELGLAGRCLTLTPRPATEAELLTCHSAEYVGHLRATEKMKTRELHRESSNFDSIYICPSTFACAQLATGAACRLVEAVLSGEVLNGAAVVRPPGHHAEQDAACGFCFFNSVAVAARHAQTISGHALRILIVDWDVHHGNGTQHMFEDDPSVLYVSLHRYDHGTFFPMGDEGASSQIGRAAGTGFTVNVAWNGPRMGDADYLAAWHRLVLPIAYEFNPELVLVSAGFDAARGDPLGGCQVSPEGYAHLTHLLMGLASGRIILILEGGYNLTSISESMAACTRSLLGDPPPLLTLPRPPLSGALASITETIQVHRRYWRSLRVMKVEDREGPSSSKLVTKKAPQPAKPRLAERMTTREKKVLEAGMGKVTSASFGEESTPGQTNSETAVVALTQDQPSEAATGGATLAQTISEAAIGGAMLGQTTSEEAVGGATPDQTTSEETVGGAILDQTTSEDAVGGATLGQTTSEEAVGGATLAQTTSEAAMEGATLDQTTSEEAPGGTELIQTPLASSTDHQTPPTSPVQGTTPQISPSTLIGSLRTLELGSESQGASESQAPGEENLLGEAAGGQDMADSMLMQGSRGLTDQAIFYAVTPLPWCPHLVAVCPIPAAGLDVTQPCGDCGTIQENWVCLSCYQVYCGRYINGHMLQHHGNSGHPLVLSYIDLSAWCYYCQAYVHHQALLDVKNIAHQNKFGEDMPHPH
Assay: HDAC6 enzyme assay
Type: biochemical
Summary of the method: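 Purified human HDAC6 incubated 1 h at 30 °C with Ac-Arg-Gly-Lys(Ac)-AMC peptide and compound; reaction stopped with trichostatin A, then trypsin releases AMC, read by fluorescence (Ex 340/Em 460 nm). IC50 from concentration-response curves relative to DMSO controls.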

[1] = bins: greater than 1 μM and less than 10 μM, greater than 10 μM

SMILES	IC50 [1]	IC50 (bin: less than 100 nM)
Cc1onc(-c2ccccc2)c1NC(=O)N1CCn2cc(C(=O)NO)nc2C1 [Compound I-122, N2-hydroxy-N7-(5-methyl-3-phenylisoxazol-4-yl)-5,6-dihydroimidazo[1,2-a]pyrazine-2,7(8H)-dicarboxamide]	1000 to 10000 nM	
O=C(NO)c1cn2c(n1)CN(C(=O)NCc1ccccc1)CC2 [Compound I-123, N7-benzyl-N2-hydroxy-5,6-dihydroimidazo[1,2-a]pyrazine-2,7(8H)-dicarboxamide]	1000 to 10000 nM	
Cc1onc(-c2ccccc2)c1CN1CCn2cc(C(=O)NO)cc2C1=O [Compound I-197, N-hydroxy-2-[(5-methyl-3-phenylisoxazol-4-yl)methyl]-1-oxo-1,2,3,4-tetrahydropyrrolo[1,2-a]pyrazine-7-carboxamide]		< 100 nM
O=C(NO)c1cc2n(c1)CCN(Cc1ccc(C(F)(F)F)cc1)C2=O [Compound I-240, N-hydroxy-1-oxo-2-[4-(trifluoromethl)benzyl]-1,2,3,4-tetrahydropyrrolo[1,2-a]pyrazine-7-carboxamide]		< 100 nM
